Measured values as given in patent EP4635969A1, “NOVEL GLUCOCORTICOID, METHOD FOR PREPARING SAME, AND USE THEREOF” (Tianjin Pharmaceutical Biotechnology Co., Ltd., priority 2022, dated 2024).

How the values were obtained:
[1] = tested on: asthma model mice; test: Anti-asthma pharmacodynamic experiment: airway hyperresponsiveness (Penh) after methacholine challenge; format: in vivo, female BALB/c mice; conditions: compared with the model group
[2] = tested on: inflammatory cytokines IL-6 and IL-12; test: Anti-asthma pharmacodynamic experiment: inflammatory cytokines in bronchoalveolar lavage fluid (ELISA); format: in vivo, female BALB/c mice; conditions: compared with the model group
[3] = tested on: inflammatory cytokines (TNF-α); test: Anti-uveitis pharmacodynamic experiment (LPS model): inflammatory cytokines in aqueous humor (ELISA); format: in vivo, male SD rats; conditions: values not given
Protocol: Pharmacological Example 5. Pharmacodynamic Experiment on Anti-Uveitis
Test samples: Compounds 23 and 26 were prepared as 5 mg/5 mL ophthalmic suspensions with reference to the formulation of Fluorometholone Eye Drops, and stored at room temperature protected from light until use.
Positive control drug: Fluorometholone Eye Drops (specification: 5 mL/5 mg; Santen Pharmaceutical (CHINA) Co., Ltd.; Lot No. : J20180068) was used as the positive control drug and stored at room temperature protected from light until use.
Fifty male SD rats underwent a one-week adaptive feeding period. The animals were randomly divided into 5 groups: Group 1 served as the blank control group, and Groups 2 to 5 were the model group, fluorometholone group, compound 23 group, and compound 26 group, respectively. Groups 2 to 5 were used to establish rat uveitis models by single subcutaneous injection of 1 mg/kg LPS (Salmonella; Sigma; Lot No. 0000164114) into the plantar tissue of the hindpaw. Salmonella endotoxin was dissolved in normal saline to prepare an injection solution at a concentration of 2 mg/mL, which was injected subcutaneously at 1 mg/kg into the plantar tissue of one paw of the rats. Group 1 was injected with an equal volume of normal saline.
After modeling, 40 µL of normal saline was administered to the eyes (bilateral) of the rats in the blank control group and model group, and 40 µL of the corresponding drugs were administered to the eyes (bilateral) of the […] in the compound 23 group, compound 26 group, and positive drug fluorometholone group, 3 times a day for 2 days. Table 8. Animal grouping and drug administration dosages
Thirty hours after modeling, aqueous humor was collected from both eyes of rats, and partial eyeball tissues of rats were collected. The level of the inflammatory cytokines (TNF-α) was detected using a rat ELISA assay kit.
Statistical analysis was performed using SPSS software. Measurement data were expressed as mean ± standard deviation. One-way ANOVA was used for intergroup comparisons. For data with homogeneous variance, LSD test was used; for data with heterogeneous variance, Dunnett-t test was used. A value of P < 0.05 was considered statistically significant.

[4] = tested on: dry eye syndrome model New Zealand rabbits; test: Dry eye syndrome experiment (benzalkonium chloride model): tear secretion test with phenol red cotton threads; format: in vivo, male New Zealand White rabbits; conditions: for tear secretion: compared with the model group
Protocol: (§1) Positive control drug: Fluorometholone Eye Drops (specification: 5 mL/5 mg; Santen Pharmaceutical (CHINA) Co., Ltd.; Lot No.: 1FM6625) was used as the positive control drug and stored at room temperature protected from light until use.
Thirty male New Zealand White rabbits (conventional grade) were prepared. Six rabbits were randomly selected as the blank control group, and the remaining animals were administered 0.1% benzalkonium chloride to the left eye twice daily (morning and evening) , 10 µL/animal each time. On day 6 of modeling, tear secretion was measured using phenol red cotton threads to determine whether the model was successfully established. […] During the administration, all animals except the blank control group were administered 10 µL of 0.1% benzalkonium chloride to the left eye once daily to maintain dry eye symptoms..
• Test time: D3, D7, D15; • Test animals: All animals were tested before grouping; all enrolled surviving animals were tested after administration; • Test method: Tear secretion was measured using phenol red cotton threads. The tear secretion test paper was folded and placed at the middle and outer 1/3 of the rabbit palpebral conjunctival sac for 1 min. The test paper was then removed, observed, and recorded for its wetting length. The test was repeated 3 times, and the values were averaged.
(§2) The normality and homogeneity of variance were tested by Levene's test. If there was no statistical significance (P > 0.05), one-way analysis of variance (ANOVA) was used for statistical analysis. If ANOVA was statistically significant (P ≤ 0.05), LSD test (parametric method) was used for comparative analysis. If the variance was heterogeneous (P ≤ 0.05), Kruskal-Wallis test was used. If the Kruskal-Wallis test was statistically significant (P ≤ 0.05), Dunnett's test (nonparametric method) was used for comparative analysis.

[5] = tested on: dry eye syndrome model New Zealand rabbits; test: Dry eye syndrome experiment (benzalkonium chloride model): corneal fluorescein sodium staining; format: in vivo, male New Zealand White rabbits; conditions: for inflammatory response on the ocular surface / ocular symptoms: compared with the model group
Protocol: Pharmacological Example 6: Therapeutic Pharmacodynamic Experiment on Dry Eye Syndrome in New Zealand Rabbits
as §1
Thirty male New Zealand White rabbits (conventional grade) were prepared. Six rabbits were randomly selected as the blank control group, and the remaining animals were administered 0.1% benzalkonium chloride to the left eye twice daily (morning and evening) , 10 µL/animal each time. […] During the administration, all animals except the blank control group were administered 10 µL of 0.1% benzalkonium chloride to the left eye once daily to maintain dry eye symptoms..
• Test time: D3, D7, D15; • Test animals: All animals were tested before grouping; all enrolled surviving animals were tested after administration; • Test method: 2 µL of 1% Fluorescein sodium was dropped into the conjunctival sac. After 5 s, the excess fluorescein was rinsed with 0.9% normal saline. The conjunctival staining was observed under a slit lamp with cobalt blue diffused light.
as §2

[6] = tested on: inflammatory bowel disease model rats; test: Inflammatory bowel disease experiment (TNBS model): macroscopic injury score of the colon; format: in vivo; conditions: compared with the model group
Protocol: Pharmacological Example 7: Pharmacodynamic Experiment on Inflammatory Bowel Disease in Rats
Test samples: The jet-milled compounds 23 and 34 were accurately weighed and prepared as 2 mg/mL clear solutions using anhydrous ethanol, respectively. The solutions were then diluted to 0.2 mg/mL with double-distilled water as the test samples, and stored at room temperature protected from light until use.
Animals in Groups 2 to 5 were subjected to trinitrobenzene sulfonic acid (TNBS) modeling as follows: A 5% TNBS aqueous solution was adjusted to 20 mg/mL TNBS (50% ethanol solution) with alcohol and water. After fasting for 24 h, the rats were anesthetized using an inhalation anesthesia machine. A silicone hose was inserted approximately 8 cm into the anus, and then TNBS was injected at a dose of 50 mg/kg. After injection, the rats were placed vertically for 1 min to prevent the backflow of TNBS solution. Then, the rats were placed into their cages for observation until the animals recovered.
Drug administration started one day before modeling, with one dose administered 1 hour before modeling and then once a day for 5 consecutive days. […] Table 14. Animal grouping and drug administration dosages
The experiment ended on day 5 after TNBS modeling. After isoflurane anesthesia, blood was collected from the hearts, and the rats were euthanized. The abdominal cavity was rapidly opened, and the macroscopic injury scoring of the colon in rats was performed based on the adhesion, obstruction, thickening of the colonic wall, colonic congestion, and necrosis in the colon area. After clearing the colonic contents, the colonic samples were longitudinally incised. The proximal 2/3 of the colon was excised, prepared into Swiss rolls, and stored in 4% neutral buffered formalin for histopathological analysis. Tissues were trimmed, dehydrated, paraffin-embedded, and sectioned (approximately 5 µm thickness), stained with hematoxylin-eosin (HE), and observed for pathological changes. Pathologists performed blind scoring of colonic lesions.
Quantitative indices were first subjected to Bartlett's test for homogeneity of variance. When the variance was homogeneous (P > 0.05), one-way analysis of variance (ANOVA) was used for a statistical test; if there was statistical significance (P ≤ 0.05), Dunnett's t-test (Dunnett method) was used to compare intergroup differences; if there was no statistical significance (P > 0.05), the statistical analysis was concluded. When the variance was heterogeneous (P ≤ 0.05), Kruskal-Wallis H rank-sum test (K-W method) was used for statistical analysis: if there was statistical significance (P ≤ 0.05), Mann-Whitney U test (M-W method) was further performed to compare intergroup differences; if there was no statistical significance (P > 0.05), the statistical analysis was concluded.

[7] = Pharmacokinetic (PK) experiment in rats; format: in vivo, male SD rats; conditions: same experimental conditions
Protocol: Pharmacological Example 11. Pharmacokinetic (PK) Experiment in Rats
The solution was prepared before administration.
Animals: 6 male SD rats, SPF grade (Beijing Vital River Laboratory Animal Technology Co., Ltd.).
Animal grouping: The animals were weighed prior to administration, and the dosage was calculated based on body weight. The animals in the oral administration group were fasted overnight (10-14 hours) before administration, and food was reintroduced 4 hours post-administration. Table 23. Animal grouping and drug administration dosages for pharmacokinetic (PK) experiment in rats
Blood collection time points: Blood was collected from the jugular vein at 2 min, 5 min, 15 min, 30 min, 1 h, 2 h, 4 h, 8 h, and 24 h after administration. Approximately 0.25 mL of blood was collected for each sample, anticoagulated with heparin sodium, and then placed on ice immediately.
Plasma sample processing: Blood samples were placed on ice after collection and centrifuged to separate plasma within 1 hour (centrifugation conditions: 6000 rpm, 3 minutes, 2-8 °C ). Plasma samples were stored in a -80°C freezer before analysis.
Data processing: Pharmacokinetic parameters were calculated using Phoenix WinNonlin 8.2.0 based on the plasma drug concentration data at different time points.

[8] = D3, 1 mg/mL, 50 µL/eye, 3 times a day for 14 days
[9] = D7, 1 mg/mL, 50 µL/eye, 3 times a day for 14 days
[10] = D15, 1 mg/mL, 50 µL/eye, 3 times a day for 14 days

SMILES	Effects on airway hyperresponsiveness (Penh values) in mice [1]	Effects on inflammatory cytokines in bronchoalveolar lavage fluid of mice [2]	inflammatory cytokines in aqueous humor [3]	Wetting length of phenol red cotton threads (mm) D0 ([4]; D0, 1 mg/mL, 50 µL/eye, 3 times a day for 14 days) [mm]	Wetting length of phenol red cotton threads (mm) D3 [4, 8] [mm]	Wetting length of phenol red cotton threads (mm) D7 [4, 9] [mm]	Wetting length of phenol red cotton threads (mm) D15 [4, 10] [mm]	tear secretion [4]	Corneal fluorescein sodium staining score D3 [5, 8]	Corneal fluorescein sodium staining score D7 [5, 9]	Corneal fluorescein sodium staining score D15 [5, 10]	inflammatory response on the ocular surface / ocular symptoms [5]	inflammatory response on the intestinal surface / intestinal symptoms [6]	pharmacokinetic properties (plasma clearance rate, systemic exposure) [7]
C[C@]12C=CC(=O)C=C1CC[C@H]1[C@@H]3C[C@H]4OC(c5ccc(CSC6COC(=O)C6)cc5Cl)O[C@@]4(C(=O)CO)[C@@]3(C)C[C@H](O)[C@@]12F (stereo partly drawn) [Compound 20, (6aS,6bR,7S,8aS,8bS,11aR,12aS,12bS)-10-(2-Chloro-4-(((5-oxotetrahydrofuran-3-yl)thio)methyl)phenyl)-6b-fluoro-7-hydroxy-8b-(2-hydroxyacetyl)-6a,8a-dimethyl-1,2,6a,6b,7,8,8a,8b,11a,12,12a, 12b-dodecahydro-4H-naphtho[2',1':4,5]indeno[1,2-d][1,3]dioxol-4-one]	significantly decreased the Penh values in mice	pharmacological effects similar to those of compound 23	suppressed inflammatory cytokines in aqueous humor	27.76 ± 6.04	23.39 ± 3.93	29.78 ± 2.74	35.28 ± 3.21	significantly increased the tear secretion on day 15	2.33 ± 0.82	1.5 ± 0.55	1.1 ± 0.52	significantly inhibited the inflammatory response on the ocular surface on day 15	significantly alleviated the intestinal symptoms in inflammatory bowel disease model rats	pharmacokinetic properties similar to those of compound 8
C[C@]12C=CC(=O)C=C1CC[C@H]1[C@@H]3C[C@H]4OC(c5ccc(CSC6CCOC6=O)cc5)O[C@@]4(C(=O)CO)[C@@]3(C)C[C@H](O)[C@@]12F (stereo partly drawn) [Compound 17, (6aS,6bR,7S,8aS,8bS,11aR,12aS,12bS)-6b-Fluoro-7-hydroxy-8b-(2-hydroxyacetyl)-6a,8a-dimethyl-10-(4-(((2-oxotetrahydrofuran-3-yl)thio)methyl)phenyl)-1,2,6a,6b,7,8,8a,8b,11a,12,12a,12b-do decahydro-4H-naphtho[2',1':4,5]indeno[1,2-d][1,3]dioxol-4-one]	significantly decreased the Penh values in mice	pharmacological effects similar to those of compound 23	suppressed inflammatory cytokines in aqueous humor	–	–	–	–	significantly increased the tear secretion	–	–	–	significantly alleviated the ocular symptoms in dry eye syndrome model New Zealand rabbits	significantly alleviated the intestinal symptoms in inflammatory bowel disease model rats	pharmacokinetic properties similar to those of compound 8
C[C@]12C=CC(=O)C=C1CC[C@H]1[C@@H]3C[C@H]4OC(c5ccc(CSC6CCOC6=O)cn5)O[C@@]4(C(=O)CO)[C@@]3(C)C[C@H](O)[C@@]12Cl (stereo partly drawn) [Compound 51, (6aS,6bR,7S,8aS,8bS,11aR,12aS,12bS)-6b-Chloro-7-hydroxy-8b-(2-hydroxyacetyl)-6a,8a-dimethyl-10-(5-(((2-oxotetrahydrofuran-3-yl)thio)methyl)pyridin-2-yl)-1,2,6a,6b,7,8,8a,8b,11a,12,12a,12 b-dodecahydro-4H-naphtho[2',1':4,5]indeno[1,2-d][1,3]dioxol-4-one]	significantly decreased the Penh values in mice	pharmacological effects similar to those of compound 23	suppressed inflammatory cytokines in aqueous humor	–	–	–	–	significantly increased the tear secretion	–	–	–	significantly alleviated the ocular symptoms in dry eye syndrome model New Zealand rabbits	significantly alleviated the intestinal symptoms in inflammatory bowel disease model rats	pharmacokinetic properties similar to those of compound 8
